Data taken from patent EP2476410A1, “An analgesic peptide-containing composition for transbuccal administration” (priority 2011, dated 2012).
Like-named read-outs stand apart in the source and are kept apart here. Where a SMILES comes first, the peptide text is derived from it.

Legend:
Swiss albino mice [1] = assay: Toxicity, multiple dose regimen, once daily for 14 days; assay type: in vivo; settings: for Appearance / Body Weight Day 1 / Body Weight Day 14 / Death: Intraperitoneal, daily
Description: Swiss albino mice were administered with the peptide at 8 mg/kg or 80 mg/kg (intraperitoneal) once daily for 14 days. Control mice received saline. At the end of the period, all mice were killed, dissected and observed for any obvious abnormality. Weights of the major organs, including brain, heart, lung, liver, spleen and kidney, were recorded.

Swiss albino mice [2] = assay: Rotarod test; assay type: in vivo; settings: 1 or 10 mg/kg, sublingual; 1h, 2h and 3h post dose
Description: Swiss albino mice (∼20-30 g) were first trained on the rotarod, which accelerated from 0-20 rpm over 5 min, prior to the experiment. Only mice that were capable of staying on the rotarod for the entire 5 min period were used in this experiment. Mice were either administered with the peptide (1 or 10 mg/kg, sublingual), or morphine (20 mg/kg, subcutaneous). After drug administration, the animals are placed on the rotarod and the time taken for the mice to slip was recorded (up to 5 min), and subsequently at 1h, 2h and 3h post peptide, and at 30 min, 1h30 min and 2h30 min post morphine. Statistical comparison was done by either Student's t-test or one-way ANOVA.

rats [3] = assay: Open-field test (anxiety score); assay type: in vivo; settings: intraperitoneally, 1 or 50 mg/kg, compared to saline control
Source text: The open field test is generally used to assess anxiety level of rodents due to their natural aversion of open space and thus their preference to stay near the side rather than venturing to the more open central part of the open field.
The open field was divided into 16 equal size squares (25 x 25 cm). The 4 squares at the centre are assigned a low anxiety score (0) while those at the 4 corners are assigned a high anxiety score (2). The remaining 8 squares are assigned a medium score (1). A rat entering each square will be given the score assigned to that square. The sum total obtained within the 5-min test period divided by the number of squares entered is the anxiety score for that rat. Diazepam was used as positive control. Statistical comparison was done by Student's t-test.

Swiss albino mice [4] = assay: Toxicity, single dose regimen, 14 days observation; assay type: in vivo; settings: for Appearance / Body Weight Day 1 / Body Weight Day 14 / Death: intraperitoneal, single dose
Description: Swiss albino mice were administered with the peptide at 8 mg/kg or 80 mg/kg (intraperitoneal) on day 1 and then observed for 14 days. Control mice received saline.
At the end of the period, all mice were sacrificed, dissected and observed for any obvious abnormality. Weights of the major organs, including brain, heart, lung, liver, spleen and kidney, were recorded.

Swiss albino mice [5] = assay: GI motility (charcoal transit distance); assay type: in vivo; settings: 5 mg/kg and 50 mg/kg intraperitoneal, 30 min post-drug
Description: Swiss albino mice (30-35 g) were injected with saline, the peptide (5 mg/kg, 50 mg/kg intraperitoneal) or morphine (0.5 mg/kg, 5 mg/kg, 50 mg/kg intraperitoneal). The experimenters are blind to the identity of the solutions. All mice were administered 5 mg charcoal (0.1 ml of 50 mg/ml charcoal solution) via oral gavage immediately after drug administration. At 30 min post- drug / charcoal administration, the mice were sacrificed by cervical dislocation and the GI tract was exposed and the location of the charcoal identified. The distance the charcoal traveled in the intestine from the stomach was measured and expressed as % of total length of the GI tract.

rats [6] = assay: Elevated-plus maze test; assay type: in vivo; settings: 1 or 50 mg/kg, 30 min or 3 h post-dose, compared to saline
Source text: The Elevated-Plus Maze Test is generally used to assess anxiety level of rodents due to their natural aversion for height. Two opposite arms of the elevated-plus maze are enclosed by high walls (closed arms) while the other two are not (open arms). The test animals (rats) naturally prefer and spend more time in the closed arms.

Sprague-Dawley rats = assay: Acute effect on blood pressure, heart rate and respiration rate in anesthetized rats; assay type: in vivo; settings: 5 and 20 mg/kg
Description: Sprague-Dawley rats (∼300 g) were anesthetized and the carotid artery was cannulated for blood pressure measurement. Drugs were administered by the pre-determined route. A pulse transducer was secured across the thoracic region of the rat to allow measurement of respiration rate. Blood pressure was recorded for at least 15 min or until a relatively stable blood pressure was observed.

mice = assay: Acute high dose toxicity (oral and intravenous); assay type: in vivo
Description: Acute toxicity was determined by both oral and intravenous administration of the peptide. Three mice were given a dose of peptide at 2 g/kg orally by gavage, 5 ml/kg.

[7] = Pharmacokinetics: plasma concentration and bioavailability by route (LC/MS/MS); assay type: in vivo, mice; settings: for bioavailability: AUC compared to intravenous route
Description: The peptide (1, 5, 15 and 25 mg/kg, 0.5 ml/kg) was administered sublingually to mice. Upon reaching specified time points of 1, 5, 15, 30, 60 and 120 min post-dose, each mouse was sacrificed and blood samples were collected via cardiac puncture. Plasma samples were then extracted and analyzed under LC/MS/MS. Systemic exposure of the peptide was also studied through intravenous, oral (gavage) and intraperitoneal routes.

Swiss albino mice [8] = assay: Spontaneous locomotor activity; assay type: in vivo; settings: 5 or 50 mg/kg, within 4 h of drug administration, compared to control
Description: Swiss albino mice (∼30 - 40 g) were first placed into their respective chambers with a 20 min pre-treatment recording. Only mice showing at least 50 counts / 5 min are used in the experiments. Mice were administered saline (control), peptide (5 or 50 mg/kg) or morphine (50 mg/kg). Experimenters were blind to the identity of the drug solutions. After drug administration, the animals were placed into their individual chambers and their spontaneous locomotor activity was recorded by video tracking and the data were recorded for a period of 4 h. Statistical comparison was done by 2-way ANOVA.

[9] = 125 mg/kg, intravenous, only the 5 mice that survived

**Q.** Which Appearance (Swiss albino mice [1]; 8 mg/kg) does the source give for `C[C@@H](O)[C@H](NC(=O)[C@@H]1CCCN1C(=O)[C@H](Cc1ccccc1)NC(=O)[C@@H]1CCCN1C(=O)[C@@H](N)CC(N)=O)C(=O)N[C@@H](Cc1c[nH]c2ccccc12)C(=O)N[C@@H](CCCNC(=N)N)C(=O)N[C@@H](CCCCN)C(=O)N[C@@H](CCCNC(=N)N)C(=O)N1CCC[C@H]1C(=O)NCC(=O)O` [the peptide, NPFPTWRKRPG] (H-NPFPTWRKRPG-OH) here?
**A.** normal

**Q.** What about the “Body Weight Day 1” value (Swiss albino mice [1]; 8 mg/kg) of the same compound?
**A.** 21.4 ± 0.8 g

**Q.** What about the “Body Weight Day 14” value (Swiss albino mice [1]; 8 mg/kg) of the same compound?
**A.** 30.0 ± 0.4 g

**Q.** And the Death (Swiss albino mice [1]; 8 mg/kg)?
**A.** nil

**Q.** What about the Death (Swiss albino mice [1]; 8 mg/kg, listed as peptide) of the same compound?
**A.** death of one mouse

**Q.** What about the Appearance (Swiss albino mice [1]; 80 mg/kg) of the same compound?
**A.** normal

**Q.** And the “Body Weight Day 1” value (Swiss albino mice [1]; 80 mg/kg)?
**A.** 21.3 ± 0.5 g

**Q.** What about the “Body Weight Day 14” value (Swiss albino mice [1]; 80 mg/kg) of the same compound?
**A.** 28.1 ± 1.2 g

**Q.** And the Death (Swiss albino mice [1]; 80 mg/kg)?
**A.** Nil

**Q.** What about the “organ appearance and weights” value (Swiss albino mice [1]; 8 or 80 mg/kg intraperitoneal once daily for 14 days) of the same compound?
**A.** All organs appeared normal and no differences in weight were observed

**Q.** What about the obvious toxicity (Swiss albino mice [1]; multiple high doses up to 80 mg/kg for 14 days) of the same compound?
**A.** did not cause any obvious toxicity

**Q.** What about the “rotarod performance (time to slip)” value (Swiss albino mice [2]) of the same compound?
**A.** No statistical significant effects

**Q.** And the anxiety scores (rats [3])?
**A.** did not show any effect on the anxiety scores

**Q.** And the Appearance (Swiss albino mice [4]; 8 mg/kg)?
**A.** normal

**Q.** And the “Body Weight Day 1” value (Swiss albino mice [4]; 8 mg/kg)?
**A.** 26.2 ± 0.4 g

**Q.** What about the “Body Weight Day 14” value (Swiss albino mice [4]; 8 mg/kg) of the same compound?
**A.** 31.7 ± 0.5 g

**Q.** And the Death (Swiss albino mice [4]; 8 mg/kg)?
**A.** nil

**Q.** What about the Appearance (Swiss albino mice [4]; 80 mg/kg) of the same compound?
**A.** normal

**Q.** And the “Body Weight Day 1” value (Swiss albino mice [4]; 80 mg/kg)?
**A.** 25.8 ± 0.6 g

**Q.** And the “Body Weight Day 14” value (Swiss albino mice [4]; 80 mg/kg)?
**A.** 31.1 ± 0.7 g

**Q.** And the Death (Swiss albino mice [4]; 80 mg/kg)?
**A.** Nil

**Q.** What about the “organ appearance and weights” value (Swiss albino mice [4]; single dose 8 or 80 mg/kg intraperitoneal, day 14) of the same compound?
**A.** All organs appeared normal and no differences in weight were observed

**Q.** What about the obvious toxicity (Swiss albino mice [4]; single high dose up to 80 mg/kg) of the same compound?
**A.** did not cause any obvious toxicity

**Q.** And the GI transit distance (Swiss albino mice [5])?
**A.** did not show any significant reduction

**Q.** And the GI transit distance (Swiss albino mice [5]; listed as The peptide)?
**A.** does not show any significant effect

**Q.** And the “time spent in the open or closed arms” value (rats [6])?
**A.** did not produce any significant changes

**Q.** And the blood pressure (Sprague-Dawley rats; intravenous route)?
**A.** dose dependent drop

**Q.** What about the blood pressure (Sprague-Dawley rats; intravenous route, listed as Peptide) of the same compound?
**A.** decreased in blood pressure

**Q.** What about the blood pressure (Sprague-Dawley rats; sublingual or intraperitoneal routes) of the same compound?
**A.** no change in blood pressure

**Q.** And the blood pressure (Sprague-Dawley rats; sublingual or intraperitoneal routes, listed as peptide)?
**A.** did not cause any changes in blood pressure

**Q.** What about the “Body Weight (g, 2 weeks postdose)” value (mice; 62.5 mg/kg, intravenous) of the same compound?
**A.** 34.7 ± 1.5 g

**Q.** What about the “Body Weight (g, predose)” value (mice; 62.5 mg/kg, intravenous) of the same compound?
**A.** 30.0 ± 1.0 g

**Q.** What about the behaviour after administration (mice; 62.5 mg/kg, intravenous) of the same compound?
**A.** appeared sedated after peptide but recovered after several hours

**Q.** And the mice that died (mice; 125 mg/kg intravenous)?
**A.** four out of nine

**Q.** And the time to death (mice; 125 mg/kg intravenous)?
**A.** 5 to 10 min

**Q.** And the “behaviour of surviving mice” value (mice; 125 mg/kg intravenous, five surviving mice)?
**A.** appeared heavily sedated for several hours

**Q.** What about the “Body Weight (g, 2 weeks postdose)” value (mice; [9]) of the same compound?
**A.** 33.6 ± 1.5 g

**Q.** What about the “Body Weight (g, predose)” value (mice; [9]) of the same compound?
**A.** 28.6 ± 1.3 g

**Q.** And the behaviour after administration (mice; 2 g/kg oral by gavage)?
**A.** appeared sedated with much decreased activity

**Q.** And the “time to recovery from sedation” value (mice; 2 g/kg oral, listed as peptide)?
**A.** about 1 h

**Q.** What about the “Body Weight (g, 2 weeks postdose)” value (mice; 2g/kg, oral) of the same compound?
**A.** 33.0 ± 1.7 g

**Q.** What about the “Body Weight (g, predose)” value (mice; 2g/kg, oral) of the same compound?
**A.** 29.3 ± 1.5 g

**Q.** What about the “time to recovery from sedation” value (mice; 2g/kg, oral) of the same compound?
**A.** ≤ 1 h

**Q.** And the LD50 (mice; administered intravenously, mice)?
**A.** about 125 mg/kg

**Q.** And the plasma concentration ([7]; 1 hour after administration, other routes of administration)?
**A.** approximately undetectable

**Q.** And the bioavailability ([7]; intraperitoneal route)?
**A.** 0.5%

**Q.** What about the level at 1 h ([7]; mouse, plasma, 25 mg/kg, 1 hour after administration, sublingual route) of the same compound?
**A.** > 100 ng/mL

**Q.** And the bioavailability ([7]; mouse, plasma, ip, intraperitoneal route, read-out: bioavailability)?
**A.** 0.5%

**Q.** And the bioavailability ([7]; mouse, plasma, oral route, read-out: bioavailability)?
**A.** 4%

**Q.** What about the bioavailability ([7]; oral route) of the same compound?
**A.** 4%

**Q.** What about the bioavailability ([7]; sublingual route) of the same compound?
**A.** 44%

**Q.** What about the plasma concentration ([7]; sublingual, doses below 5 mg/kg, by 30 min after administration) of the same compound?
**A.** negligible

**Q.** And the locomotive activities (Swiss albino mice [8])?
**A.** no significant difference
